Data: US8530619B2, “Identification of the hepcidin binding site on ferroportin” (University of Utah Research Foundation, priority 2007, dated 2013)
No end group written: not given here.

Tests used:
[1] = Solubility of the peptide; type: physicochemical; conditions: two arginines added at amino and carboxyl terminals
Experimental: Peptides were synthesized at the DNA/Peptide Core Facility, University of Utah, Salt Lake City, Utah. The peptides were synthesized with two arginines added at the amino and carboxyl terminals. […] Microscope analysis was carried out using an Olympus BX51 microscope (Olympus, Tokyo, Japan). Images were acquired using Picture Frame 2.5 software (Olympus America, East Muskogee, Okla.). All experiments were repeated a minimum of 5 times.

[2] = biological target: T1, I-HBD (Homo sapiens, UniProt Q9NP59); experiment: Competition with 125I-labeled hepcidin on HBD-coated 96-well plate; type: binding; conditions: 96-well plate, 0, 50, 100, 500 ng hepcidin, room temperature, 4 hours
T1 construct: made in house; host or cells: chemical synthesis
Experimental: In accordance with the invention, HBD can be used in an assay system to determine levels of hepcidin in a test sample. Accordingly, unlabeled HBD is immobilized on a solid substrate. HBD peptides were immobilized by covalently attaching them to a 96-well plate. Immobilization was performed using Reacti-Bind Amine-binding 96-well plates (Pierce), following the manufacturer's instructions. […] The plates were incubated at room temperature overnight. The peptide solution was then removed from the wells and a protein blocking buffer, such as dry milk in phosphate buffer saline, was added to each well and allowed to sit for two hours at 37° C. The plates were then washed with warm washing buffer to remove unbound material. HBD-coated plates were used in an assay to detect hepcidin as follows: […] The plate was incubated at room temperature for 4 hours. […] (FIG. 7)

[3] = system: E. coli; experiment: Binding of hepcidin to E. coli; conditions: low temperature hepcidin dimer; preliminary study
Experimental: The five amino terminal amino acids of hepcidin were previously shown to be critical for binding of hepcidin to Fpn (7). […] Hepcidin is amphipathic and it is hypothesized that the hydrophobic surface of hepcidin monomers are interacting at 4° C. to form a dimer. Hepcidin, like other defensins, interacts through its hydrophobic surface with bacterial membranes (11).

[4] = biological target: T2, I-HBD (hepcidin binding domain of ferroportin) (Homo sapiens, UniProt Q9NP59); experiment: Competition with 125I-hepcidin for binding to I-HBD beads
T2 construct: made in house; host or cells: chemical synthesis
Experimental: FIGS. 2A-C illustrates that the binding of ^125I-hepcidin to HBD is specific and temperature dependent. In FIG. 2A peptides (HBD, scrambled-HBD or mutant (C326Y HBD) were conjugated to beads and ^125I-hepcidin was added to the bead-immobilized peptides (I-HBD) for 18 hours at 37° C. (black bars) or 4° C. (grey bars). The beads were washed and the amount of ^125I-hepcidin bound to the I-HBD was determined. In FIG. 2B a sub saturating concentration of ^125I-hepcidin (0.6 μg/ml) was incubated with I-HBD for 18 hours at 37° C. in the presence or absence of known concentrations of either hepcidin 25 (Hep 25-open circles) or hepcidin 25 synthesized with a tyrosine substitution at position M21 (Y-Hep 25) and the amount of radioactivity bound to the I-HBD determined. In FIG. 2C sub saturating levels of ^125I-hepcidin were incubated with I-HBD at different temperatures.
The binding of ^125I-hepcidin could be reduced by addition of native non-radioactive hepcidin with an apparent K of approximately 200 nM (FIG. 2B). There was no binding of ^125I-hepcidin to I-HBD at 4° C. and ^125I-hepcidin bound to I-HBD at 37° C. was released when subsequently placed at 4° C. (data not shown).
HBD peptides were immobilized by covalently attaching them to agarose beads. […] The fluid was removed and the radioactivity bound to beads was determined by gamma counting (Perkin/Elmer).

Compound	solubility of the peptide [1]	competition with 125I-labeled hepcidin for binding to I-HBD [2]	binding to E. coli [3]	binding to HBD / I-HBD [4]
RRFDCITTGYAYTQGLSGSILSRR [HBD wt]	increased the solubility	–	–	–
CC[C@H](C)[C@@H]1NC(=O)[C@@H](NC(=O)[C@@H](NC(=O)[C@@H]2CCCN2C(=O)[C@H](Cc2ccccc2)NC(=O)[C@H](Cc2c[nH]cn2)NC(=O)[C@@H](NC(=O)[C@@H](N)CC(=O)O)[C@@H](C)O)[C@@H](C)CC)CSSC[C@@H](C(=O)N[C@@H](CCCCN)C(=O)N[C@H](C(=O)O)[C@@H](C)O)NC(=O)[C@@H]2CSSC[C@@H]3NC(=O)[C@@H]4CSSC[C@H](NC(=O)[C@H](Cc5ccccc5)NC1=O)C(=O)N[C@@H](CSSC[C@H](NC(=O)[C@H](CCCCN)NC(=O)[C@H](CO)NC(=O)[C@H](CCCNC(=N)N)NC(=O)[C@H](Cc1c[nH]cn1)NC3=O)C(=O)NCC(=O)N[C@@H](CCSC)C(=O)N2)C(=O)NCC(=O)N4 [hepcidin]	–	able to compete for binding to I-HBD	cannot bind to E. coli	does bind
